In US20030068615A1, “Polypeptides that bind HIV gp120 and related nucleic acids, antibodies, compositions, and methods of use” (priority 1999, published 2003):
Where two headings read alike, the source gives them in different places.

Biological target: HIV-1LAI envelope gp120 (Human immunodeficiency virus type 1 group M subtype B, UniProt P03377)
Type: binding
Details: for Binding Results For Window Length (counts bound-background), 9: 9-mer starting at the first residue of the printed sequence; for number of radioactive decays (counts) counted: human CD4 21-mer scan, empty control 2075; for Counts per 20′ Average-background: CCR5 18-mer scan, radiolabeled HIV-1LAI gp120
[1] = Panel C, 15-mers and 18-mers of CD4, empty control 556
[2] = Panel A, 21-mers of CD4, empty control 515 and 617
[3] = Panel E, 9-mers and 12-mers of CD4, empty control 571
[4] = STRL33 amino terminus, background subtracted
[5] = CXCR4 18-mer scan, background subtracted, empty control 0
[6] = CXCR4 18-mer scan, empty control 412
[7] = Panel D, 9-mers and 12-mers of CD4, empty control […]
[8] = Panel B, 15-mers and 18-mers of CD4, empty control 575

EFKIDIVVLAFQKAS
COUNTS of radiolabeled gp120 retained [1]: 1188 counts

EFKIDIVVLAFQKASSIV
COUNTS of radiolabeled gp120 retained [1]: 799 counts

EFKIDIVVLAFQKASSIVYKK
COUNTS of radiolabeled gp120 retained [2]: 649 counts

EFSFPLAFT
COUNTS of radiolabeled gp120 retained [3]: 658 counts

EFSFPLAFTVEK
COUNTS of radiolabeled gp120 retained [3]: 585 counts

EFSFPLAFTVEKLTG
COUNTS of radiolabeled gp120 retained [1]: 920 counts

EFSFPLAFTVEKLTGSGE
COUNTS of radiolabeled gp120 retained [1]: 668 counts

EFSFPLAFTVEKLTGSGELWW
COUNTS of radiolabeled gp120 retained [2]: 681 counts

EGEQVEFSF
COUNTS of radiolabeled gp120 retained [3]: 735 counts

EGEQVEFSFPLA
COUNTS of radiolabeled gp120 retained [3]: 1456 counts

EGEQVEFSFPLAFTV
COUNTS of radiolabeled gp120 retained [1]: 3270 counts

EGEQVEFSFPLAFTVEKL
COUNTS of radiolabeled gp120 retained [1]: 2164 counts

EGEQVEFSFPLAFTVEKLTGS
COUNTS of radiolabeled gp120 retained [2]: 739 counts

EHDYHEDYGFSSFNDSSQ
Binding Results For Window Length (counts bound-background), 9 [4]: 509 counts | Binding Results For Window Length (counts bound-background), 12 (STRL33 amino terminus, 12-mer starting at the first residue of the printed sequence, background subtracted): 937 counts | Binding Results For Window Length (counts bound-background), 15 (STRL33 amino terminus, 15-mer starting at the first residue of the printed sequence, background subtracted): 2235 counts | Binding Results For Window Length (counts bound-background), 18 (STRL33 amino terminus, 18-mer starting at the first residue of the printed sequence, background subtracted): 1219 counts

EHQAFLQFS
Binding Results For Window Length (counts bound-background), 9 [4]: 7505 counts

EKKTCQCPHRFQKTCSPI
number of radioactive decays (counts) counted: 2006 counts

EKLTGSGEL
COUNTS of radiolabeled gp120 retained [3]: 541 counts

EKLTGSGELWWQ
COUNTS of radiolabeled gp120 retained [3]: 543 counts

EKLTGSGELWWQAER
COUNTS of radiolabeled gp120 retained [1]: 683 counts

EKVVYVGVWIPALLLTIP [CXCR4 segment 153-170]
radioactive counts recorded in twenty minutes [5]: 147 counts | radioactive counts recorded in twenty minutes [6]: 559 counts

ENTVHKWISITEALAFFH [CXCR4 segment 277-294]
radioactive counts recorded in twenty minutes [5]: 315 counts | radioactive counts recorded in twenty minutes [6]: 727 counts

EQVEFSFPL
COUNTS of radiolabeled gp120 retained [3]: 1032 counts

EQVEFSFPLAFT
COUNTS of radiolabeled gp120 retained [3]: 1556 counts

EQVEFSFPLAFTVEK
COUNTS of radiolabeled gp120 retained [1]: 4135 counts

EQVEFSFPLAFTVEKLTG
COUNTS of radiolabeled gp120 retained [1]: 798 counts

EQVEFSFPLAFTVEKLTGSGE
COUNTS of radiolabeled gp120 retained [2]: 765 counts

ERASSVYTRSTGEQEISV [CCR5 segment 333-]
Counts per 20′ Average-background (background subtracted): 84 counts per 20′

ESNIKVLPTWSTPVQPMALIV [human CD4 381-401]
number of radioactive decays (counts) counted: 1992 counts

EVEDQKEEV
COUNTS of radiolabeled gp120 retained [7]: 587 counts

EVEDQKEEVQLL
COUNTS of radiolabeled gp120 retained [7]: 508 counts

EVEDQKEEVQLLVFG
COUNTS of radiolabeled gp120 retained [8]: 2805 counts

EVEDQKEEVQLLVFGLTA
COUNTS of radiolabeled gp120 retained [8]: 3647 counts

EVNLVVMRATQLQKNLTCEVW [human CD4 311-331]
number of radioactive decays (counts) counted: 2183 counts

EVQLLVFGL
COUNTS of radiolabeled gp120 retained [7]: 2146 counts

EVQLLVFGLTAN
COUNTS of radiolabeled gp120 retained [7]: 1838 counts

EVQLLVFGLTANSDT
COUNTS of radiolabeled gp120 retained [8]: 2689 counts

EVQLLVFGLTANSDTHLL
COUNTS of radiolabeled gp120 retained [8]: 667 counts

FACWLPYYIGISIDSFIL [CXCR4 segment 249-266]
radioactive counts recorded in twenty minutes [5]: 202 counts | radioactive counts recorded in twenty minutes [6]: 614 counts

FFIILLTIDRYLAVVHAV [CCR5 segment 117-]
Counts per 20′ Average-background (background subtracted): 77 counts per 20′

FGLTANSDT
COUNTS of radiolabeled gp120 retained [7]: 563 counts

FGLTANSDTHLL
COUNTS of radiolabeled gp120 retained [7]: 571 counts

FGLTANSDTHLLQGQ
COUNTS of radiolabeled gp120 retained [8]: 625 counts

FGLTANSDTHLLQGQSLT
COUNTS of radiolabeled gp120 retained [8]: 591 counts

FGQVMCKSLLGIYTINFY
radioactive counts recorded in twenty minutes (STRL33 18-mer scan, background subtracted, first of two count columns): 1257.5 counts | radioactive counts recorded in twenty minutes (STRL33 18-mer scan, background subtracted, second of two count columns): 1354.5 counts

FHCCLNPILYAFLGAKFK [CXCR4 segment 293-310]
radioactive counts recorded in twenty minutes [5]: 123 counts | radioactive counts recorded in twenty minutes [6]: 535 counts

FIFGFVGNMLVILILINC [CCR5 segment 41-58]
Counts per 20′ Average-background (background subtracted): 343 counts per 20′

FIGFFSGIFFIILLTIDR
Counts per 20′ Average-background (background subtracted): 76 counts per 20′

FIGLGIFFCVRCRHRRRQAER
number of radioactive decays (counts) counted: 1900 counts

FISLDRYLAIVHATNSQR
radioactive counts recorded in twenty minutes [5]: 91 counts | radioactive counts recorded in twenty minutes [6]: 503 counts

FKIDIVVLA
COUNTS of radiolabeled gp120 retained [3]: 568 counts
